According to patent US20010018454A1, “Method for protecting wood and wooden articles from fungal infection” (priority 2000, published 2001):
Like-named read-outs stand apart in the source and are kept apart here.

Legend:
wood-damaging fungi = settings: cited from earlier work
molds = settings: 35° C. saturated water vapor
Protocol: Two pinewood boards in each case are dipped into potassium sorbate solution (see table 1 for concentrations) and stored in a saturated water vapor atmosphere at 35° C. In parallel with this, in each case two pinewood boards, after the dipping, were additionally dirtied with soil on the surface in order to achieve greater surface contamination with molds. The boards were individually packed in film in order to exclude cross contaminations and regularly visually examined for fungal infection.

blue stain infection = system: blue stain infection
Source text: Immersion Impregnation with Aqueous Potassium Sorbate Solution Air-dry pine boards are dipped into a solution of 30% potassium sorbate in water for […] of the surface. After the treatment they are air dried.
Air-dried pine boards are, as in example 1, dipped into a solution of 30% potassium sorbate in a mixture of 75% by volume of water and 25% by volume of 1,2-propanediol, further treated and stored.
Air-dried pine boards are sprayed with a spraying pistol with a solution of 20% potassium sorbate in water until the surface is uniformly wet. The boards are then allowed to dry and are stored as in example 1.

fungi = settings: cited from earlier work

C/C=C/C=C/C(=O)[O-].C/C=C/C=C/C(=O)[O-].[Zn+2] [zinc salt of sorbic acid]
Activity as wood preservative (wood-damaging fungi): inactive

C/C=C/C=C/C(=O)[O-].[K+] [potassium sorbate]
Fungal infection (molds; V1: dwell time 10 min, 1 % by weight solution, without soil): no/after 81 days | Fungal infection (molds; V2: dwell time 10 min, 2 % by weight solution, without soil): no/after 81 days | Fungal infection (molds; V3: dwell time 10 min, 5 % by weight solution, without soil): no/after 81 days | Fungal infection (molds; V4: dwell time 5 min, 10 % by weight solution, without soil): no/after 81 days | Fungal infection (molds; V5: dwell time 10 min, 1 % by weight solution, with soil): little/from day 43 | Fungal infection (molds; V6: dwell time 10 min, 2 % by weight solution, with soil): little/from day 53 | Fungal infection (molds; V7: dwell time 10 min, 5 % by weight solution, with soil): no/after 81 days | Fungal infection (molds; V8: dwell time 5 min, 10 % by weight solution, with soil): no/after 81 days | Fungal infection after storage (blue stain infection; pine boards dipped in 30% potassium sorbate in 75% by volume water / 25% by volume 1,2-propanediol, stored as in example 1): completely free from fungal infection | Fungal infection after storage (blue stain infection; pine boards dipped in 30% potassium sorbate in water, stored in the open three weeks next to untreated boards): remain free from fungal infection | Fungal infection after storage (blue stain infection; pine boards sprayed with 20% potassium sorbate in water, stored as in example 1): corresponds to that of example 1

C/C=C/C=C/C(=O)[O-].[Na+] [sodium sorbate]
Protection of bamboo against fungal infection (fungi; generally, even after a few days): infection with fungi | Protection of bamboo against fungal infection (fungi; pH 3.0): active
